# Laboratory results taken from patent US10889553B2, “Asymmetric triazole benzamide derivatives and the compositions and methods of treatment regarding the same” (NysnoBio Ireland DAC, priority 2017, dated 2021).
# Read-outs that look alike come from different tables or passages of the source.
# What was measured:
# [1] = system: 44 protein targets; assay: Selectivity screen against 44 protein targets (whole panel); format: binding; details: 10 μM; % inhibition less than 50% is considered no effect
# Text: If the % inhibition is less than 50%, the test compounds is consider to have no effect.
# [2] = system: Ovarian (OAW42); assay: Cancer cell proliferation assay (acid phosphatase); format: cell-based; details: Homo sapiens, OAW-42
# Procedure, shortened: (§1)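 Growth inhibition is expressed as a percentage of DMSO-treated control cells, using absorbance at 405 nm corrected at 620 nm after acid phosphatase conversion of p-nitrophenol phosphate. Compound exposure lasts 72 hrs at 37° C. following overnight attachment.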
# [3] = system: TOV-112D (ovarian); assay: Cancer cell proliferation assay (acid phosphatase); format: cell-based; details: Homo sapiens, TOV112D
# Procedure, shortened: as §1
# [4] = system: A427 (lung); assay: Cancer cell proliferation assay (acid phosphatase); format: cell-based; details: Homo sapiens, A-427; Table 6C, data of FIG. 2
# Procedure, shortened: as §1
# [5] = system: Colo205 (colon); assay: Cancer cell proliferation assay (acid phosphatase); format: cell-based; details: Homo sapiens, COLO 205; Table 6C, data of FIG. 2
# Procedure, shortened: as §1
# [6] = system: Mantle Cell Mino; assay: Cancer cell proliferation assay (acid phosphatase); format: cell-based; details: Homo sapiens, Table 6E
# Procedure, shortened: as §1
# [7] = system: JEKO-1 (lymophoma); assay: Cancer cell proliferation assay (acid phosphatase); format: cell-based; details: Homo sapiens
# Procedure, shortened: as §1
# [8] = system: Ovarian OAW28 (OAW2B); assay: Cancer cell proliferation assay (acid phosphatase); format: cell-based; details: Homo sapiens, OAW-28
# Procedure, shortened: as §1
# [9] = system: SKOV3 (ovarian); assay: Cancer cell proliferation assay (acid phosphatase); format: cell-based; details: Homo sapiens, SK-OV-3; Table 6D, another set of cell proliferation assay
# Procedure, shortened: as §1
# [10] = system: HT-29 (colon); assay: Cancer cell proliferation assay (acid phosphatase); format: cell-based; details: Homo sapiens, Table 6C, data of FIG. 2
# Procedure, shortened: as §1
# [11] = system: Ovarian (ES-2); assay: Cancer cell proliferation assay (acid phosphatase); format: cell-based
# Procedure, shortened: as §1
# [12] = system: H292 (lung); assay: Cancer cell proliferation assay (acid phosphatase); format: cell-based; details: Homo sapiens, NCI-H292; Table 6C, data of FIG. 2
# Procedure, shortened: as §1
# [13] = system: Ovarian (A2780); assay: Cancer cell proliferation assay (acid phosphatase); format: cell-based; details: Homo sapiens
# Procedure, shortened: as §1
# [14] = system: SW626 (ovarian); assay: Cancer cell proliferation assay (acid phosphatase); format: cell-based; details: Homo sapiens
# Procedure, shortened: as §1
# [15] = system: Ovarian OVCAR-3; assay: Cancer cell proliferation assay (acid phosphatase); format: cell-based; details: Homo sapiens, Table 6E
# Procedure, shortened: as §1
# [16] = Table 6D, another set of cell proliferation assay
smiles,measurement,setting,value
"Cc1ccccc1C(=O)Nc1nc(NC(=O)c2ccccc2C)n(-c2ccc(OC(F)(F)F)cc2)n1 [Compound 42, N,N′-(1-(4-(trifluoromethoxy)phenyl)-1H-1,2,4-triazole-3,5-diyl)bis(2-methylbenzamide)]",effect against the 44 protein targets,[1],no effects
same,EC50,[2]; [16],166 nM
same,IC50,[2]; Table 6E,166 nM
same,IC50,"[3]; Table 6C, data of FIG. 2, read-out: IC50 (μM) TOV-112D (ovarian)",0.13 µM
same,EC50,"[3]; Table 6D, another set of cell proliferation assay, read-out: EC50 (nM) Ovarian (TOV0112D)",98 nM
same,IC50,"[3]; Table 6E, read-out: Proliferation IC50 (nM) Ovarian TOV112D",0.103 µM
same,IC50,[4],0.15 µM
same,IC50,[5],0.2 µM
same,IC50,[6],345 nM
same,EC50,"[7]; Table 6D, another set of cell proliferation assay, read-out: EC50 (nM) Mantle cell (Jeko-1)",154 nM
same,IC50,"[7]; Table 6E, read-out: Proliferation IC50 (nM) Mantle Cell Jeko-1",154 nM
same,EC50,[8]; [16],114 nM
same,IC50,[8]; Table 6E,140 nM
same,EC50,[9],376 nM
same,IC50,[10],0.2 µM
same,EC50,[11]; [16],42 nM
same,IC50,[11]; Table 6E,57 nM
same,IC50,[12],0.16 µM
same,EC50,[13]; [16],58 nM
same,IC50,[13]; Table 6E,84 nM
same,IC50,"[14]; Table 6C, data of FIG. 2",0.3 µM
same,EC50,[14]; [16],334 nM
same,IC50,[15],140 nM
